The assay addresses human TrkA (Homo sapiens (Human), UniProt P04629). The assay can be described thus: Human TrkA inhibition assay (Test Example 2). Type of assay: biochemical. The gist of the method:
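Mobility-shift readout of phosphorylated versus unphosphorylated fluorescent peptide gave conversion ratio, normalized to DMSO and no-enzyme wells; IC50 by logistic fit of 10- or 15-point 3-fold dilutions. Conditions: 1 nmol/L enzyme, 15 min compound preincubation, then 500 μmol/L ATP plus 1.5 μmol/L peptide, 120 min, 37 °C.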

The mark [1] stands for this setting: Table 154, human TrkA inhibition, read-out: IC50.
Where [2] appears, read: human TrkA 1 nmol/L, ATP 500 μmol/L, 120 min at 37° C., read-out: IC50 values (TrkA phosphorylation inhibition).

SMILES strings stand for the structures. Like-named read-outs stand apart in the source and are kept apart here. Where only a bound is given, the exact number is not on record here.

Chain of human TrkA (P04629 440-796): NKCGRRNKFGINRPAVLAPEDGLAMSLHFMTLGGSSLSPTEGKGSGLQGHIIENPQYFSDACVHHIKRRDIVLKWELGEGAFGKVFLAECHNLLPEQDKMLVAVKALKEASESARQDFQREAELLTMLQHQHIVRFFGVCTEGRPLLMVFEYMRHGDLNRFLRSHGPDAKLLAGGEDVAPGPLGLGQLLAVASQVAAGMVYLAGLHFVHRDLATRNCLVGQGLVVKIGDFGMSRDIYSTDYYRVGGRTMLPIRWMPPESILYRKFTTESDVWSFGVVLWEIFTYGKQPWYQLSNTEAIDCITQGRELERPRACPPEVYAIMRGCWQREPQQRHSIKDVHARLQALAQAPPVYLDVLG

For `Cc1c(-c2cnc3c(cnn3C)c2)nn(-c2ccccc2)c1NC(=O)N[C@@H]1CN(CC(C)(C)CN(C)C)O[C@H]1c1ccc(F)c(F)c1` (racemic) [Compound I-206], the IC50 under setting [1] lay within 100 to 1000 nM.

Take `Cc1c(-c2cnc3c(cnn3C)c2)nn(-c2ccccc2)c1NC(=O)N[C@@H]1CN(C)O[C@H]1c1ccc(F)c(F)c1` (racemic) [Compound I-207]: under setting [1], the IC50 was below 100 nM.

With `COCCN1C[C@@H](NC(=O)Nc2c(C)c(-c3cnc4c(c3)[nH]c(=O)n4C)nn2-c2ccccc2)[C@H](c2ccnc(F)c2)O1` (racemic) [Compound I-208], the IC50 under setting [1] is below 100 nM.

Turning to `COCCN1C[C@@H](NC(=O)Nc2c(C)c(-c3ccnc(C(=O)O)c3)nn2-c2ccccc2)[C@H](c2ccnc(F)c2)O1` (racemic) [Compound I-212], under setting [1], the IC50 is below 100 nM. Turning to `COCCN1C[C@@H](NC(=O)Nc2c(C)c(-c3ccc(C(=O)O)nc3)nn2-c2ccccc2)[C@H](c2ccc(F)c(F)c2)O1` (racemic) [Compound I-214], the IC50 under setting [1] is below 100 nM. Still for that read-out and setting: to `COCC[C@@H]1C[C@@H](NC(=O)Nc2c(C)c(-c3cnc4c(c3)c(=O)n(C)n4C)nn2-c2ccccc2)[C@H](c2ccc(F)c(F)c2)O1` (racemic) [Compound I-215] belongs below 100 nM. For `COCCN1C[C@@H](NC(=O)Nc2c(C)c(-c3cnn(C)c3)nn2-c2ccccc2)[C@H](c2cc(F)nc(F)c2)O1` (racemic) [Compound I-217], under setting [2], the IC50 is 4.6 nM. Take `COCCN1C[C@@H](NC(=O)Nc2c(C)c(-c3cnc4c(c3)nc(C(N)=O)n4C)nn2-c2ccccc2)[C@H](c2ccnc(F)c2)O1` (racemic) [Compound I-219]: the IC50 under setting [1] was below 100 nM.

Take `COCCN1C[C@@H](NC(=O)Nc2c(C)c(-c3cnc4c(c3)nc(C#N)n4C)nn2-c2ccccc2)[C@H](c2ccnc(F)c2)O1` (racemic) [Compound I-220]: the IC50 under setting [1] was below 100 nM. Take `COCCN1C[C@@H](NC(=O)Nc2c(C)c(-c3cnc4c(cnn4C)c3)nn2-c2ccc(F)cc2)[C@H](c2ccnc(F)c2)O1` (racemic) [Compound I-223]: under setting [1], the IC50 was below 100 nM.

With `CNC(=O)c1nc2cc(-c3nn(-c4ccccc4)c(NC(=O)N[C@@H]4CN(CCOC)O[C@H]4c4ccnc(F)c4)c3C)cnc2n1C` (racemic) [Compound I-224], the IC50 under setting [1] was below 100 nM. Same read-out and setting: as for `COCCN1C[C@@H](NC(=O)Nc2c(C)c(-c3cnc4c(c3)nc(C(=O)NCCO)n4C)nn2-c2ccccc2)[C@H](c2ccnc(F)c2)O1` (racemic) [Compound I-225], the figure is below 100 nM; as for `COCCN1C[C@@H](NC(=O)Nc2c(C)c(-c3cnc4c(c3)nc(C(F)(F)F)n4C)nn2-c2ccccc2)[C@H](c2ccnc(F)c2)O1` (racemic) [Compound I-226], below 100 nM; as for `COCCN1C[C@@H](NC(=O)Nc2c(C)c(-c3cnc4c(cnn4CC(F)(F)F)c3)nn2-c2ccccc2)[C@H](c2ccnc(F)c2)O1` (racemic) [Compound I-228], below 100 nM.

Consider `COCCN1C[C@@H](NC(=O)Nc2c(C)c(-c3ccnc(C(=O)NO)c3)nn2-c2ccccc2)[C@H](c2ccnc(F)c2)O1` (racemic) [Compound I-230], for which the IC50 under setting [1] is below 100 nM. With `COCCN1C[C@@H](NC(=O)Nc2c(C)c(-c3ccnc(C(=O)NOC)c3)nn2-c2ccccc2)[C@H](c2ccnc(F)c2)O1` (racemic) [Compound I-232], under setting [2], the IC50 is 4.2 nM.

In the case of `COCCN1C[C@@H](NC(=O)Nc2c(C)c(-c3ccc(C(=O)NOC)nc3)nn2-c2ccccc2)[C@H](c2ccc(F)c(F)c2)O1` (racemic) [Compound I-234], the IC50 under setting [1] was below 100 nM. For `COCCN1C[C@@H](NC(=O)Nc2c(C)c(-c3cnc(OC)c(C(N)=O)c3)nn2-c2ccc(F)cc2)[C@H](c2ccnc(F)c2)O1` (racemic) [Compound I-238], the IC50 under setting [1] is below 100 nM.

For the compound `COCCN1C[C@@H](NC(=O)Nc2c(C)c(-c3cnc(OC)c(C(=O)NC4CCOCC4)c3)nn2-c2ccc(F)cc2)[C@H](c2ccnc(F)c2)O1` (racemic) [Compound I-239], the IC50 under setting [2] came to 3.8 nM. For `COCCN1C[C@@H](NC(=O)Nc2c(C)c(-c3cnc4c(c3)ncn4CC(F)(F)F)nn2-c2ccccc2)[C@H](c2ccnc(F)c2)O1` (racemic) [Compound I-240], under setting [1], the IC50 is below 100 nM.

Regarding `COCCN1C[C@@H](NC(=O)Nc2c(C)c(-c3cnc4ncn(CC(F)(F)F)c4c3)nn2-c2ccccc2)[C@H](c2ccnc(F)c2)O1` (racemic) [Compound I-241], under setting [2], the IC50 worked out at 3.2 nM.

With `COCC[C@@H]1C[C@@H](NC(=O)Nc2c(C)c(-c3cnc(N4CC(O)C4)nc3)nn2-c2ccccc2)[C@H](c2ccc(F)c(F)c2)O1` (racemic) [Compound I-242], the IC50 under setting [1] is below 100 nM. For `COCCN1C[C@@H](NC(=O)Nc2c(C)c(-c3cnc4nn(CC(F)(F)F)cc4c3)nn2-c2ccccc2)[C@H](c2ccnc(F)c2)O1` (racemic) [Compound I-243], the IC50 under setting [1] is below 100 nM. Consider `COCCN1C[C@@H](NC(=O)Nc2c(C)c(N3Cc4cnn(C)c4C3)nn2-c2ccccc2)[C@H](c2ccnc(F)c2)O1` (racemic) [Compound I-244], for which the IC50 under setting [2] worked out at 17 nM. On to `COCCN1C[C@@H](NC(=O)Nc2c(C)c(-c3cnc4c(ccc(=O)n4C)c3)nn2-c2ccccc2)[C@H](c2ccnc(F)c2)O1` (racemic) [Compound I-246], for which the IC50 under setting [1] is below 100 nM. The same measure, in the same setting: to `COCCN1C[C@@H](NC(=O)Nc2c(C)c(-c3cnc(OC)nc3)nn2-c2ccccc2)[C@H](c2ccc(F)cc2)O1` (racemic) [Compound I-247] belongs below 100 nM; to `COCCN1C[C@@H](NC(=O)Nc2c(C)c(-c3cnc(Cl)nc3)nn2-c2ccccc2)[C@H](c2ccnc(F)c2)O1` (racemic) [Compound I-249], below 100 nM. Still for that read-out and setting: to `COCCN1C[C@@H](NC(=O)Nc2c(C)c(-c3cnc(SC)nc3)nn2-c2ccccc2)[C@H](c2ccnc(F)c2)O1` (racemic) [Compound I-250] belongs below 100 nM; to `COCCN1C[C@@H](NC(=O)Nc2c(C)c(-c3cnc(C(N)=O)c(F)c3)nn2-c2ccccc2)[C@H](c2ccnc(F)c2)O1` (racemic) [Compound I-255], below 100 nM. On the same count and under the same terms, as for `CNC(=O)c1ncc(-c2nn(-c3ccccc3)c(NC(=O)N[C@@H]3CN(CCOC)O[C@H]3c3ccnc(F)c3)c2C)cc1F` (racemic) [Compound I-256], the figure is below 100 nM. Turning to `COCCN1C[C@@H](NC(=O)Nc2c(C)c(-c3cnc(C(=O)NC4CC4)c(F)c3)nn2-c2ccccc2)[C@H](c2ccnc(F)c2)O1` (racemic) [Compound I-257], the IC50 under setting [1] was below 100 nM. Still for that read-out and setting: as for `COCCN1C[C@@H](NC(=O)Nc2c(C)c(-c3cnc4c(c3)COC4=O)nn2-c2ccccc2)[C@H](c2ccnc(F)c2)O1` (racemic) [Compound I-259], the figure is below 100 nM; as for `COCCN1C[C@@H](NC(=O)Nc2c(C)c(-c3cnc(OC)c(C(=O)NOC)c3)nn2-c2ccccc2)[C@H](c2ccnc(F)c2)O1` (racemic) [Compound I-260], below 100 nM. Regarding `COCCN1C[C@@H](NC(=O)Nc2c(C)c(-c3cnc(OC)c(C(=O)NOCCF)c3)nn2-c2ccccc2)[C@H](c2ccnc(F)c2)O1` (racemic) [Compound I-261], the IC50 under setting [1] is below 100 nM. On the same count and under the same terms, as for `COCCN1C[C@@H](NC(=O)Nc2c(C)c(-c3ccc4c(c3)CS(=O)(=O)N4C)nn2-c2ccccc2)[C@H](c2ccnc(F)c2)O1` (racemic) [Compound I-262], the figure is below 100 nM; as for `COCCN1C[C@@H](NC(=O)Nc2c(C)c(-c3cnc4c(c3)c(C(F)(F)F)nn4C)nn2-c2ccccc2)[C@H](c2ccnc(F)c2)O1` (racemic) [Compound I-264], below 100 nM. The same measure, in the same setting: as for `COCCN1C[C@@H](NC(=O)Nc2c(C)c(-c3cnc(N4CC(O)C4)nc3)nn2-c2ccccc2)[C@H](c2ccc(F)cc2)O1` (racemic) [Compound I-265], the figure is below 100 nM; as for `COCCN1C[C@@H](NC(=O)Nc2c(C)c(-c3cnc(N4CCC4)nc3)nn2-c2ccccc2)[C@H](c2ccnc(F)c2)O1` (racemic) [Compound I-266], below 100 nM; as for `COCCN1C[C@@H](NC(=O)Nc2c(C)c(-c3ccc4nnc(C)n4c3)nn2-c2ccccc2)[C@H](c2ccc(F)cc2)O1` (racemic) [Compound I-267], below 100 nM.

For the compound `COCCN1C[C@@H](NC(=O)Nc2c(C)c(-c3cnc4c(c3)c(=O)on4C)nn2-c2ccccc2)[C@H](c2ccnc(F)c2)O1` (racemic) [Compound I-269], the 50% inhibitory concentration (IC50) under setting [1] was below 100 nM. The same measure, in the same setting: as for `COCCN1C[C@@H](NC(=O)Nc2c(C)c(-c3cnc(S(C)(=O)=O)nc3)nn2-c2ccccc2)[C@H](c2ccnc(F)c2)O1` (racemic) [Compound I-270], the figure is below 100 nM. In the case of `COCCN1C[C@@H](NC(=O)Nc2c(C)c(-c3ccc(N4CCC(O)CC4)nc3)nn2-c2ccccc2)[C@H](c2ccnc(F)c2)O1` (racemic) [Compound I-278], the IC50 under setting [2] came to 3.7 nM. On the same count and under the same terms, to `COCCN1C[C@@H](NC(=O)Nc2c(C)c(-c3cnc4c(c3)OCC(=O)N4)nn2-c2ccccc2)[C@H](c2ccnc(F)c2)O1` (racemic) [Compound I-279] belongs 2 nM. For the compound `COCCN1C[C@@H](NC(=O)Nc2c(C)c(-c3cnc4c(c3)OCCN4C(=O)OC(C)(C)C)nn2-c2ccccc2)[C@H](c2ccnc(F)c2)O1` (racemic) [Compound I-280], under setting [1], the IC50 is below 100 nM. Still for that read-out and setting: as for `COCCN1C[C@@H](NC(=O)Nc2c(C)c(-c3cnc4c(c3)OCCN4)nn2-c2ccccc2)[C@H](c2ccnc(F)c2)O1` (racemic) [Compound I-281], the figure is below 100 nM.

Consider `COCCN1C[C@@H](NC(=O)Nc2c(C)c(-c3ccc4nc(C(N)=O)cn4c3)nn2-c2ccccc2)[C@H](c2ccnc(F)c2)O1` (racemic) [Compound I-282], for which the IC50 under setting [1] was below 100 nM. Same read-out and setting: to `COCCN1C[C@@H](NC(=O)Nc2c(C)c(-c3ccc(N4CCCC4)nc3)nn2-c2ccccc2)[C@H](c2ccnc(F)c2)O1` (racemic) [Compound I-283] belongs below 100 nM.

For `COCCN1C[C@@H](NC(=O)Nc2c(C)c(-c3ccn4c(C)nnc4c3)nn2-c2ccccc2)[C@H](c2ccc(F)cc2)O1` (racemic) [Compound I-284], under setting [1], the IC50 is below 100 nM.
